# In a melting point compilation (Tetko et al.; mined from patent text by program, amines drawn as free bases though some values may be those of a salt):
row,melting point [°C],Compound
1,194 to 196,CC(C)Cc1c2c(nn1Cc1ccccc1)c(N)nc1ccccc12
2,140 to 142,COC(=O)N[C@H]1Cc2ccc(N)cc2C1
3,146 to 147,CCOCc1nc2c(N)nc3ccccc3c2n1CCCCS(=O)(=O)NC(C)C
4,172 to 173,Cc1cc(C)nc(NC(=O)NS(=O)(=O)c2sccc2-c2ccon2)n1
5,91 to 92,C#Cc1ccc2ccc(OC(OC)C(=O)NC(C)(C)COC)cc2c1 (stereo not given)
6,110,CS(=O)(=O)Oc1ccccc1CC(=O)O
7,> 275,N#Cc1cccc(/C=C/c2cc(Cl)cnc2N)c1
8,48 to 52,CCOC(=O)[C@@H](O)CCNC(=O)[C@@H](CSC(C)=O)Cc1ccccc1C
9,92 to 100,CC(C)(C(=O)O)c1ccc(OCCNC(=O)C2Cc3ccccc3N2S(=O)(=O)c2ccc(-c3cc(C(F)(F)F)ccc3Cl)cc2)cc1 (stereo not given)
10,186,NCCOc1ccc(C=CC(=O)N2CCc3c([nH]c4ccccc34)C2c2ccc3c(c2)CCO3)cc1 (stereo not given)
11,155 to 158,COc1nc2ccc([N+](=O)[O-])cc2nc1Cl
12,236,CC(=O)OCC(=O)C1(O)CCC2C3CCC4=CC(=O)CCC4(C)C3CCC21C (stereo not given)
13,125,O=C(O)CCNC(=O)C(=Cc1ccc(-c2ccccc2)cc1)CS
14,139 to 140,O=C(Nc1cccc(NCc2ccccc2)n1)c1cc(-c2ccc(F)cc2)n(C2CCCCO2)n1 (stereo not given)
15,185 to 187,Nc1cccc(-c2ccc(CCN3CCN(C(=O)C4CCCC4)CC3)cc2)n1
16,136,Cn1nc(C(F)(F)F)cc1Oc1cccc(C(=O)NCC(F)(F)F)n1
17,191 to 192,CCNC(=O)CSc1nc(Cl)cc(Nc2cccc(C)c2C)n1
18,169,Clc1ccc(-c2csc(-c3cnccc3N3CCOCC3)n2)cc1
19,122 to 125,CCCCCCCCCCCCNC(=O)c1cc(Br)c(OCCNC(N)=O)c(-c2cccc(C(F)(F)F)c2)c1
20,163 to 165,CCOC(=O)C1=C(N)C(OCC)=NS1(=O)=O
21,96,ON=C(c1ccc2c(c1)OCO2)C(F)(F)F
22,104 to 106,COc1ccc(Cn2cnc3c(Cl)nc(C(F)(F)F)nc32)cc1
23,179 to 181,O=C(OCCN1C(=O)C=C(c2ccccc2)C1=O)c1cc([N+](=O)[O-])cc([N+](=O)[O-])c1

# Further lines, the compound ahead of its results:
row,Compound,melting point [°C]
1,CC1CC(=O)NN=C1c1ccc2c(c1)Oc1c[nH]nc1N2 (stereo not given),304 to 306
2,CC(C)(C)c1ccc(-c2[nH]c3cccc4c3c2CCNC4=O)cc1,243 to 244
3,O=C1C(=O)c2ccccc2C2=C1SCC1(CCN(C(=O)c3ccc(Cl)c(Cl)c3)CC1)O2,221
4,Cc1c(C=CCN2CC=C(c3ccccc3)CC2)cnn1-c1ncccn1,112 to 114
5,CC1(C)CC2(CC(C)(C)N1)NC(=O)N(CC(O)COC(=O)CCCCC(=O)OCC(O)CN1C(=O)NC3(CC(C)(C)NC(C)(C)C3)C1=O)C2=O (stereo not given),132 to 134
6,CCCCCCCCC(C)OC(=O)NC(C)(C=O)CCc1c[nH]c2ccccc12 (stereo not given),178 to 179
7,COC(=O)C(c1ccc(Cl)cc1)c1c(Cl)cc(-n2ncc(=O)n(C)c2=O)cc1Cl (stereo not given),173
8,CC12CCC3c4ccc(C(=O)O)cc4CCC3C1CCC2C(=O)C1CCCCC1 (stereo not given),280 to 285
9,CC(C)C(=O)NC(c1ccc(C=O)cc1)C(F)(F)F (stereo not given),132 to 133
10,CCOC(=O)Oc1cc2occ(C=O)c(=O)c2cc1OC(=O)OCC,101 to 102
11,CNC(=NS(C)(=O)=O)NCc1cccc(-c2csc(N=C(N)N)n2)n1,254 to 255
12,COc1ccc(CC(C)CC(C(=O)C(CC(C)Cc2ccc(OC)c(OC)c2)N2C(=O)c3ccccc3C2=O)N2C(=O)c3ccccc3C2=O)cc1OC (stereo not given),128
13,COc1ccc(-n2nnc(-c3ccc(Cl)c(Cl)c3)c2N)cc1,190 to 191
14,N#Cc1ccc2c(c1)[nH]c(=S)n2NC(=O)c1ccc(Cl)c(S(N)(=O)=O)c1,315
15,Cc1nc(N)c(O)c(=O)[nH]1,> 300
16,COC(=O)c1cncn1C1c2ccccc2C(Br)(Br)C1(C)C (stereo not given),138
17,CCOC(=O)COc1ccc(SCc2cccc3[nH]c(-c4ccc(C(F)(F)F)cc4)cc23)cc1C,85 to 88
18,COc1ccc(CC(C)=NO)cc1S(N)(=O)=O,193 to 194
19,NCCc1c[nH]c2ccc(NC(=O)Nc3ccccc3)cc12,192 to 194
20,CC1(C)c2ccccc2C(C)(C)C1(S)CCO,85 to 87
21,Cc1nc(CN2C(=O)C3(COc4cc5c(cc43)OCO5)c3ccccc32)c(C(F)(F)F)o1 (stereo not given),136 to 137
22,O=C1CCC(c2ccccc2)(c2ccccc2)C2CN(C(Cc3ccccc3)=NCc3ccccc3Cl)CC12 (stereo not given),192
23,[N-]=[N+]=NCC(=O)c1cn2c3c(cccc13)CCC2,92 to 93
24,C#CCOc1cc(C(=O)O)cc(S(N)(=O)=O)c1-c1ccccc1,154 to 155

row,Compound,melting point [°C]
1,Cc1ccc([N+](=O)[O-])cc1-c1cn(C)cc(-c2ccccc2)c1=O,185 to 187
2,NC(=O)c1ccc(-c2cnc3[nH]c(=O)n(CC4CCCCC4)c3n2)cc1,293 to 295
3,COC(=O)c1ccc2c(c1)SCCC2NC(=O)OCc1ccccc1 (stereo not given),128 to 130
4,COc1cc([N+](=O)[O-])c2nccc(C)c2c1OC,123 to 125
5,CCN(CC)CCOc1ccc(N2C(=O)C(c3ccccc3)=C3CCCCC32)cc1 (stereo not given),81
6,Oc1ccc2cnccc2c1,218 to 220
7,CCCCOc1ccc(S(=O)(=O)C2(C(=O)NO)CCN(Cc3ccncc3)CC2)cc1,118
8,O=c1c2ccc(Cl)cc2[nH]c2c(O)nn(Cc3ccco3)c(=O)c12,> 265
9,CC(=O)Nc1ccccc1N1CCc2ccccc21,125 to 128
10,Cc1cc(C)c(-c2cc(O)c(SCc3ccccc3)c(=O)o2)c(C)c1,134 to 136
11,COc1ccc(NC(=O)c2c(Cl)cccc2Cl)c2nccc(NN)c12,> 250
12,Fc1ccc(-c2ncnc(C(F)(F)F)c2Cl)c(F)c1,61 to 63
13,COc1ccc(-c2coc3ccc(-c4nnc(C)o4)cc23)cc1F,159 to 160
14,CC1(C)Oc2ccc(C#N)cc2[C@@H](n2ncccc2=O)[C@@H]1O (relative stereo),211 to 215
15,CCC(NS(=O)(=O)c1ccc(F)cc1)P(=O)(Oc1ccccc1)Oc1ccccc1 (stereo not given),148 to 151
16,CNC(=O)c1[nH]c(C(C)(C)C)cc1NC(=O)Nc1ccc(C)cc1,164 to 166
17,O=C1CCC(N2Cc3c(OCc4ccc(Cn5cnnc5)cc4)cccc3C2=O)C(=O)N1 (stereo not given),173 to 175
18,COc1cc(CCCC2OC(=O)NC2=O)ccc1OCc1nc(-c2ccc3ccccc3c2)oc1C (stereo not given),173 to 174
19,CCOc1ccc(C2=NNC(=O)[C@H]3CCCC[C@@H]23)cc1OCC (relative stereo),156 to 157
20,Cc1c2c(c(-c3ccc(F)cc3)c3c4c(ccc13)OCO4)CNC2=O,293 to 295
21,CC(C)c1csc2[nH]cc(C#N)c(=O)c12,285
22,COc1ccc(/C(=C/C=C/C(=O)Oc2ccc([N+](=O)[O-])cc2)C(C)C)cc1,95 to 96.5
23,CCNC(=O)NCCC1CCc2ccc(OC)cc21 (stereo not given),90 to 92
